# Reference: ChEMBL document CHEMBL6134844, “Development of Next-Generation Antimalarial Acridones with Radical Cure Potential” (J Med Chem, 2025)
# Tests used:
# [1] = test system: Plasmodium falciparum; assay: Antiplasmodial activity against asexual blood-stage (ABS) ATV-resistant clinical isolate Plasmodium falciparum Tm90-C2B infected in human erythrocytes assessed as reduction in fluorescence measured after 72 hrs by Malaria SYBR Green I-based Fluorescence (MSF) assay; format: functional, organism-based; conditions: Erythrocyte
# [2] = test system: Plasmodium cynomolgi; assay: (§1) Antiplasmodial activity against schizont Plasmodium cynomolgi B strain infected in Macaca mulatta hepatocytes incubated with sporozoite containing salivary gland homogenate obtained from dissected Anopheles dirus mosquitoes (infected with Plasmodium cynomolgi B strain) treatment started on day 4 post infection and continued daily for 4 days into fresh changed media until day 8 assessed as Liver stage (LS) activity by measuring prophylactic mode by immunofluorescent staining analysis; format: functional, organism-based; conditions: Hepatocyte
# [3] = test system: Plasmodium falciparum; assay: Antiplasmodial activity against asexual blood-stage (ABS) MDR Plasmodium falciparum Dd2 infected in human erythrocytes assessed as reduction in fluorescence measured after 72 hrs by Malaria SYBR Green I-based Fluorescence (MSF) assay; format: functional, organism-based; conditions: Dd2, Erythrocyte
# [4] = Toxicity in CF1 mouse infected with asexual blood-stage (ABS) Plasmodium yoelii MRA-428 assessed as ruffled hair at 0.3 to 30 mg/kg, po treated 24 hrs post infection measured after 4 days; format: organism-based; conditions: in vivo, 96 h, dose 0.3-30 mg/kg, time 4 day
# [5] = test system: Plasmodium cynomolgi; assay: as §1, with “hypnozoite” for “schizont”, “radical cure” for “prophylactic”; format: functional, organism-based; conditions: Hepatocyte
# [6] = test system: Plasmodium cynomolgi; assay: as §1, with “radical cure” for “prophylactic”; format: functional, organism-based; conditions: Hepatocyte
# [7] = as §1, with “Selectivity index, ratio of CC50 for Macaca mulatta hepatocytes to IC50 for antiplasmodial” for “Antiplasmodial”; format: toxicity, cell-based; conditions: rhesus monkey, read-out: Selectivity Index
# [8] = mouse, microsomes, 1 h
# [9] = Toxicity in CF1 mouse infected with asexual blood-stage (ABS) Plasmodium yoelii MRA-428 assessed as hunching at 0.3 to 30 mg/kg, po treated 24 hrs post infection measured after 4 days; format: organism-based; conditions: in vivo, 96 h, dose 0.3-30 mg/kg, time 4 day
# [10] = test system: Hepatocyte; assay: Cytotoxicity against Macaca mulatta hepatocytes assessed as cell viability measured after 48 hrs by MTT assay; format: toxicity, cell-based; conditions: rhesus monkey, 48 h
# [11] = Toxicity in CF1 mouse infected with asexual blood-stage (ABS) Plasmodium yoelii MRA-428 assessed as weight loss at 0.3 to 30 mg/kg, po treated 24 hrs post infection measured after 4 days; format: organism-based; conditions: in vivo, 96 h, dose 0.3-30 mg/kg, time 4 day
# [12] = test system: Plasmodium cynomolgi; assay: as §1, with “hypnozoite” for “schizont”; format: functional, organism-based; conditions: Hepatocyte
# [13] = test system: Plasmodium falciparum; assay: Antiplasmodial activity against asexual blood-stage (ABS) CQ-sensitive Plasmodium falciparum D6 infected in human erythrocytes assessed as reduction in fluorescence measured after 72 hrs by Malaria SYBR Green I-based Fluorescence (MSF) assay; format: functional, organism-based; conditions: D6, Erythrocyte
# [14] = test system: HepG2; assay: Cytotoxicity against human HepG2 cells assessed as cell viability measured after 48 hrs by MTT assay; format: functional, cell-based; conditions: HepG2, 48 h
# [15] = Toxicity in CF1 mouse infected with asexual blood-stage (ABS) Plasmodium yoelii MRA-428 assessed as hyperactivity at 0.3 to 30 mg/kg, po treated 24 hrs post infection measured after 4 days; format: organism-based; conditions: in vivo, 96 h, dose 0.3-30 mg/kg, time 4 day
# [16] = as §1, with “Selectivity index, ratio of CC50 for Macaca mulatta hepatocytes to IC50 for antiplasmodial” for “Antiplasmodial”, “radical cure” for “prophylactic”; format: toxicity, cell-based; conditions: rhesus monkey, read-out: Selectivity Index
# [17] = Toxicity in CF1 mouse infected with asexual blood-stage (ABS) Plasmodium yoelii MRA-428 assessed as lethargy at 0.3 to 30 mg/kg, po treated 24 hrs post infection measured after 4 days; format: organism-based; conditions: in vivo, 96 h, dose 0.3-30 mg/kg, time 4 day
# [18] = as §1, with “Selectivity index, ratio of CC50 for Macaca mulatta hepatocytes to IC50 for antiplasmodial” for “Antiplasmodial”, “hypnozoite” for “schizont”, “radical cure” for “prophylactic”; format: toxicity, cell-based; conditions: rhesus monkey, read-out: Selectivity Index
# [19] = as §1, with “Selectivity index, ratio of CC50 for Macaca mulatta hepatocytes to IC50 for antiplasmodial” for “Antiplasmodial”, “hypnozoite” for “schizont”; format: toxicity, cell-based; conditions: rhesus monkey, read-out: Selectivity Index
# [20] = human, microsomes, 1 h
Structure (SMILES),IC50 [1] [nM],IC50 [2] [µM],IC50 [3] [nM],Activity [4],IC50 [5] [µM],IC50 [6] [µM],selectivity ratio at 96 h [7],CLH [8] [µL/min/mg],Activity [9],CC50 [10] [µM],Activity [11],IC50 [12] [µM],IC50 [13] [nM],IC50 [14] [µM],Activity [15],selectivity ratio at 96 h [16],Activity [17],selectivity ratio at 96 h [18],selectivity ratio at 96 h [19],t1/2 [20] [min]
CCCN(CCC)CCCOc1ccc2c(=O)c3c([nH]c2c1)CCCC3,162,5.33,126,Non-toxic,> 20,14,> 3.75,> 500,Non-toxic,> 20,Non-toxic,> 20,108,> 200,Non-toxic,> 1.43,Non-toxic,–,–,–
O=c1c2c([nH]c3cc(Nc4ccc(OC(F)(F)F)cc4)ccc13)CCCC2,2.79,0.21,1.85,Non-toxic,1.29,1.4,8.62,56,Non-toxic,1.81,Non-toxic,1.09,0.232,> 200,Non-toxic,1.29,Non-toxic,1.4,1.66,–
CCN(CC)CCOc1ccc2c(=O)c3c([nH]c2c1)CCCC3,> 2500,14,> 2500,Non-toxic,> 20,> 20,> 1.43,> 500,Non-toxic,> 20,Non-toxic,> 20,> 2500,–,Non-toxic,–,Non-toxic,–,–,> 60
O=c1c2c([nH]c3cc(Oc4ccccc4OC(F)(F)F)ccc13)CCCC2,0.275,0.64,0.171,Non-toxic,> 20,> 20,> 31.2,72.1,Non-toxic,> 20,Non-toxic,7.72,0.023,> 200,Non-toxic,–,Non-toxic,–,> 2.59,–
CCCCN(CCCC)CCCOc1ccc2c(=O)c3c([nH]c2c1)CCCC3,59.7,4.92,39.4,Non-toxic,> 20,> 20,> 4.06,> 500,Non-toxic,> 20,Non-toxic,> 20,7.2,> 200,Non-toxic,–,Non-toxic,–,–,–
O=c1c2c([nH]c3cc(OC(F)(F)F)ccc13)CCCC2,58.6,3.96,84.7,Non-toxic,> 20,> 20,> 5.05,21.3,Non-toxic,> 20,Non-toxic,> 20,52.4,> 200,Non-toxic,–,Non-toxic,–,–,–
CCN(CC)CCCOc1ccc2c(=O)c3c([nH]c2c1)CCCC3,> 2500,11,> 2500,Non-toxic,> 20,> 20,> 1.82,> 500,Non-toxic,> 20,Non-toxic,> 20,> 2500,–,Non-toxic,–,Non-toxic,–,–,> 60
O=c1c2c([nH]c3cc(OCc4ccc(OC(F)(F)F)cc4)ccc13)CCCC2,43.5,3.62,27.5,Non-toxic,> 20,> 20,> 5.52,31.9,Non-toxic,> 20,Non-toxic,> 20,6.02,> 200,Non-toxic,–,Non-toxic,–,–,–
O=c1c2c([nH]c3cc(Oc4cccc(OC(F)(F)F)c4)ccc13)CCCC2,4.38,0.6,0.537,Non-toxic,7.99,6.87,16.8,29.7,Non-toxic,10.1,Non-toxic,4.64,0.116,> 200,Non-toxic,1.47,Non-toxic,1.25,2.18,> 60
O=c1c2c([nH]c3c(Oc4ccc(OC(F)(F)F)cc4)cccc13)CCCC2,219,7.63,83.8,Non-toxic,> 20,17.9,> 2.62,6.85,Non-toxic,> 20,Non-toxic,13.1,57.5,> 200,Non-toxic,> 1.12,Non-toxic,–,> 1.53,> 60
O=c1c2c([nH]c3ccc(F)c(Oc4ccc(OC(F)(F)F)cc4)c13)CCCC2,> 2500,7.4,> 2500,Non-toxic,14,> 20,> 2.7,31.1,Non-toxic,> 20,Non-toxic,7.32,1360,–,Non-toxic,–,Non-toxic,> 1.43,> 2.73,–
CCCN(CCC)CCOc1ccc2c(=O)c3c([nH]c2c1)CCCC3,46.1,9.83,64.3,Non-toxic,> 20,> 20,> 2.03,492,Non-toxic,> 20,Non-toxic,> 20,24.5,> 200,Non-toxic,–,Non-toxic,–,–,–
O=c1c2c([nH]c3cccc(Oc4ccc(OC(F)(F)F)cc4)c13)CCCC2,> 2500,3.34,> 2500,Non-toxic,3.83,2.92,1.79,48,Non-toxic,6,Non-toxic,7.62,> 2500,> 200,Non-toxic,2.05,Non-toxic,1.57,0.787,–
